According to publication PMC10671052, “Naphthyl-Substituted Indole and Pyrrole Carboxylic Acids as Effective Antibiotic Potentiators—Inhibitors of Bacterial Cystathionine γ-Lyase” (International Journal of Molecular Sciences, 2023):

Key:
in vitro = in vitro ADME; details: human, plasma, pH 7.4, Fraction bound fb
Protocol: Plasma protein binding was assessed using RED device inserts with built-in cellulose acetate dialysis membranes (molecular weight cutoff: 8 kDa). The final concentration of the test compound in human plasma was 5 μM. The samples were prepared by placing 300 μL of human plasma into the plasma compartment of the RED device and 500 μL of phosphate-buffered saline (pH 7.4) into the buffer compartment. The RED device was fixed to a shaker, placed in a CO2 (5%) incubator, and incubated for 6 h at 37 °C. After an equilibration step, 100 μL aliquots were taken from each compartment; 100 μL of plasma was added to the buffer compartment aliquot and 100 μL of buffer was added to the plasma compartment aliquot. After mixing, 600 μL of acetonitrile containing an internal standard was added. […] All compounds were tested in duplicate. Fraction bound fb was determined via the following equation: fb (%) = [1 − (Cb/Cp)] × 100, where Cb is the concentration of an analyte in the buffer compartment (μM), and Cp is the concentration of the analyte in the plasma compartment (μM).

[1] = tested on: P. aeruginosa GIMC5016:PA1840/36/2015; test: MIC of antibiotics alone and with potentiators, clinical isolate
Protocol: (§1) Overnight (ON) culture of a specific strain was grown in the liquid Luria–Bertani nutrient medium (LB broth, BD Difco) for 18 h at 37 °C, with agitation at 180 rpm using an Innova 44R orbital shaker (Eppendorf, Hamburg, Germany). After a certain period, 50 µL of the ON culture was transferred into 5 mL of the LB medium and grown for 3 h at 37 °C with agitation. Growth in the liquid medium was assessed by means of turbidity of the suspension, measured using a Densi-La-Meter II densitometer (Erba Lachema s.r.o., Brno, Czech Republic). Then, the bacterial suspension was diluted to the concentration 10^6 cells/mL with sterile LB and used as a seed culture [38, 39].
(§2) For the assessment of MICs, 96-well microtiter plates were utilized at 200 µL of a medium per well. Each well was filled with 100 µL of the seed culture. After that, 10 µL of a solution of each tested synthetic compound (potentiators) was added into each experimental well. Finally, 90 µL of twofold serial dilutions of an antibiotic in a sterile LB was added into individual wells.
(§3) As a positive control, we set up wells with 100 µL of the bacterial culture and 100 µL of the sterile LB medium. […] Negative-control wells contained 200 µL of the sterile medium. The plates were incubated in a thermostat for 18–20 h at 37 °C. The bacterial growth was assessed as optical density at 600 nm on a CLARIOstar microplate reader (BMG LABTECH GmbH, Ortenberg, Germany)).

[2] = tested on: A. baumannii GIMC5509:ABT-52Ts19; test: as above
Protocol: as §1, §2, §3

[3] = biological target: S. aureus cystathionine-γ-lyase (bCSE) (Staphylococcus aureus, UniProt A0A0H3K724); test: IC50 assay: inhibition of H2S production by purified bCSE, WSP5 fluorescent probe; type: biochemical
Chain of S. aureus cystathionine-γ-lyase (bCSE) (A0A0H3K724 entry or part of it): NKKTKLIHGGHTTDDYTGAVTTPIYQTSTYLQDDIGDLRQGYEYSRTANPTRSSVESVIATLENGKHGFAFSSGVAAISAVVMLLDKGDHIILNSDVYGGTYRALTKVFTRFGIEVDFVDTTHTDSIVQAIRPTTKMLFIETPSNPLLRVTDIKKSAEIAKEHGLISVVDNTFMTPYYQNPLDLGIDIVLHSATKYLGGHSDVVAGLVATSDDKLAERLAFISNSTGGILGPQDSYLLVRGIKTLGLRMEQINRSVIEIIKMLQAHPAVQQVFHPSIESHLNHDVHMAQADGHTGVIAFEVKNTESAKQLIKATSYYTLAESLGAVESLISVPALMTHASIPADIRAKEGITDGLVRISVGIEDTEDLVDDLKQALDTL
Summary of the method: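 Purified recombinant enzyme (0.02 μM; E. coli-expressed) preincubated 40 min at 30 °C with inhibitor in 50 mM sodium phosphate pH 8.0, 10 μM PLP, 0.1% Tween 20 and 1.2 μM WSP-5. Started with 100 μM L-cysteine; H2S fluorescence (ex 500/em 530 nm) followed 12 h. IC50 from four-parameter fit, mean of ≥2 experiments.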

[4] = HEK293 cytotoxicity assay (Alamar Blue); type: cell-based; details: human, HEK293 cells, HEK293, 72 h
Protocol: The HEK 293 cell line was obtained from the European Collection of Authenticated Cell Cultures (ECACC, cat. # 85120602, Salisbury, UK). The cells were grown in a monolayer culture in Dulbecco’s Modified Eagle’s Medium (DMEM) (PanEco, Moscow, Russia), supplemented with 2 mM L-glutamine, 1% of a penicillin/streptomycin solution (Capricorn Scientific, Ebsdorfergrund, Germany), and 10% of heat inactivated fetal bovine serum (HyClone, Cytiva, Marlborough, MA, USA) in a humidified atmosphere containing 5% of CO2 at 37 °C (Binder, Germany). For the assay, HEK 293 cells were seeded in a 96-well plate (Corning, NY, USA) in 100 μL of the complete culture medium, at a final density of 2 × 10^3 cells/well, and were cultured for 24 h for proper attachment. Subsequently, the medium was removed, and the cells were exposed to a tested inhibitor at different concentrations for 72 h in 100 μL of the fresh complete culture medium. The sensitivity of the cells to the compounds was detected using the vital dye Alamar Blue (Invitrogen, San Diego, CA, USA). The Alamar Blue assay was performed according to the procedure described by O’Brien et al.. After incubation with the tested bCSE inhibitors, 10 μL of the Alamar Blue reagent was added into each well, the cell culture plates were returned to the humidified incubator, and the fluorescence was read after 3 h. The plates were exposed to an excitation light of 545 nm wavelength, and emission at 600 nm was measured on the CLARIOstar Plus (BMG LABTECH GmbH, Ortenberg, Germany). To determine half-maximal cytotoxic concentration (CC50), a four-parameter sigmoidal curve model (GraphPad Prism 8 software) was fitted to the measurement data.

[5] = P. aeruginosa GIMC5016:PA1840/36/2015, potentiator 50 µg/mL
[6] = A. baumannii GIMC5509:ABT-52Ts19, potentiator 50 µg/mL

Compound: O=C(O)c1cc2ccccc2n1Cc1cccc2ccccc12 [Compound 2a]
- fraction unbound at 6 h, 5 μM (in vitro): < 0.01
- MIC of Tacillin in combination with potentiator ([1]; P. aeruginosa GIMC5016:PA1840/36/2015, piperacillin + tazobactam, potentiator 50 µg/mL): 32 µg/mL
- MIC of Cefepim in combination with potentiator [1, 5]: 32 µg/mL
- MIC of Gentamicin in combination with potentiator [1, 5]: > 512 µg/mL
- MIC of Meropenem in combination with potentiator [1, 5]: 8 µg/mL
- MIC of Tacillin in combination with potentiator ([2]; A. baumannii GIMC5509:ABT-52Ts19, piperacillin + tazobactam, potentiator 50 µg/mL): 64 µg/mL
- MIC of Cefepim in combination with potentiator [2, 6]: 256 µg/mL
- MIC of Meropenem in combination with potentiator [2, 6]: 32 µg/mL
- IC50 ([3]; IC50 (uM), bCSE enzymatic IC50, rounded, repeated in Table S13): 65 µM
- IC50 ([3]; IC50 (uM), bCSE enzymatic IC50, rounded, repeated in Table S14): 65 µM
- IC50 ([3]; IC50 (uM), bCSE enzymatic IC50, rounded, repeated in Table S15): 65 µM
- IC50 ([3]; IC50 biochemical assay bCSE, purified bCSE 0.02 μM, 100 μM L-cysteine, WSP5 probe, mean ± SD): 64.6 ± 3.1 µM
- CC50 at 72 h [4]: 291 ± 8.11 µM
